Laboratory results taken from the CheMixHub viscosity set.

Assay: xn = mol fraction of the nth substance listed

C1CCOC1 + CCCCO
101 kPa
Details	viscosity [mPa·s]
298.15 K, x1 = 0.0512	2.141
298.15 K, x1 = 0.102	1.844
298.15 K, x1 = 0.1406	1.658
298.15 K, x1 = 0.183	1.504
298.15 K, x1 = 0.3126	1.154
298.15 K, x1 = 0.4002	0.9777
298.15 K, x1 = 0.4443	0.9072
298.15 K, x1 = 0.5	0.8514
298.15 K, x1 = 0.5121	0.8099
298.15 K, x1 = 0.5924	0.7195
298.15 K, x1 = 0.6795	0.6388
298.15 K, x1 = 0.7633	0.5776
298.15 K, x1 = 0.8268	0.5346
298.15 K, x1 = 0.8944	0.5033
298.15 K, x1 = 0.9677	0.4714
313.15 K, x1 = 0.0576	1.529
313.15 K, x1 = 0.1184	1.324
313.15 K, x1 = 0.173	1.166
313.15 K, x1 = 0.2282	1.035
313.15 K, x1 = 0.3549	0.831
313.15 K, x1 = 0.4542	0.7105
313.15 K, x1 = 0.5481	0.6237
313.15 K, x1 = 0.6462	0.5526
313.15 K, x1 = 0.7386	0.4994
313.15 K, x1 = 0.8296	0.4574
313.15 K, x1 = 0.8747	0.439
313.15 K, x1 = 0.9154	0.4256
313.15 K, x1 = 0.9584	0.4129

CC(=O)Oc1ccccc1C(=O)O + CCCCO
viscosity [mPa·s], 101 kPa
Details	x1 = 0.0007	x1 = 0.00094	x1 = 0.00118	x1 = 0.00141	x1 = 0.00165	x1 = 0.00189	x1 = 0.00236
293.15 K	2.93	2.931	2.932	2.933	2.934	2.935	2.938
298.15 K	2.57	2.571	2.572	2.573	2.574	2.575	2.576
303.15 K	2.26	2.262	2.262	2.263	2.264	2.265	2.266
308.15 K	2.001	2.002	2.003	2.005	2.005	2.007	2.009
310.15 K	1.9	1.901	1.901	1.902	1.903	1.903	1.905
313.15 K	1.766	1.767	1.767	1.768	1.768	1.769	1.769

CC(C)=O + CCCCO
Details	viscosity [mPa·s]
298.15 K, 101 kPa, x1 = 0.12	1.65
298.15 K, 101 kPa, x1 = 0.24	1.164
298.15 K, 101 kPa, x1 = 0.35	0.8875
298.15 K, 101 kPa, x1 = 0.46	0.7108
298.15 K, 101 kPa, x1 = 0.56	0.5919
298.15 K, 101 kPa, x1 = 0.66	0.5089
298.15 K, 101 kPa, x1 = 0.75	0.4285
298.15 K, 101 kPa, x1 = 0.84	0.4014
298.15 K, 101 kPa, x1 = 0.92	0.3651
303.15 K, 101.33 kPa, x1 = 0.1152	1.535
303.15 K, 101.33 kPa, x1 = 0.2307	1.127
303.15 K, 101.33 kPa, x1 = 0.3341	0.879
303.15 K, 101.33 kPa, x1 = 0.4685	0.642
303.15 K, 101.33 kPa, x1 = 0.7032	0.427
303.15 K, 101.33 kPa, x1 = 0.7974	0.368

CC1COC(=O)O1 (centres undefined) + CCCCO
298 K, 101.3 kPa
Details	viscosity [mPa·s]
x1 = 0.0202	2.541
x1 = 0.0403	2.511
x1 = 0.0604	2.482
x1 = 0.08	2.452
x1 = 0.1006	2.423
x1 = 0.2005	2.287
x1 = 0.3006	2.167
x1 = 0.4003	2.074
x1 = 0.5	2.016
x1 = 0.6001	1.999
x1 = 0.7	2.031
x1 = 0.8004	2.12
x1 = 0.9	2.271

CCCCn1cc[n+](C)c1.O=S(=O)([O-])C(F)(F)F + CCCCO
100 kPa
Details	viscosity [mPa·s]
298.15 K, x1 = 0.2147	6.17
298.15 K, x1 = 0.2908	8.85
298.15 K, x1 = 0.9078	62.73
303.15 K, x1 = 0.2147	5.08
303.15 K, x1 = 0.2908	6.92
303.15 K, x1 = 0.9078	50.78
308.15 K, x1 = 0.2908	6.03
313.15 K, x1 = 0.4008	9.48
318.15 K, x1 = 0.4008	7.86
323.15 K, x1 = 0.4008	7.16

Cc1ccccc1 + CCCCO
viscosity [mPa·s]
Details	298.15 K	303.15 K	308.15 K	313.15 K	318.15 K
101 kPa, x1 = 0.092	2.01	1.769	1.581	1.393	1.292
101 kPa, x1 = 0.1987	1.59	1.459	1.323	1.199	1.106
101 kPa, x1 = 0.2983	1.279	1.181	1.076	0.9827	0.9514
101 kPa, x1 = 0.393	1.084	1.004	0.9192	0.8418	0.8198
101 kPa, x1 = 0.5091	0.8978	0.8372	0.7739	0.714	0.7048
101 kPa, x2 = 0.12	0.56	–	–	–	–
101 kPa, x2 = 0.24	0.635	–	–	–	–
101 kPa, x2 = 0.35	0.715	–	–	–	–
101 kPa, x2 = 0.45	0.84	–	–	–	–
101 kPa, x2 = 0.55	0.997	–	–	–	–
101 kPa, x2 = 0.65	1.199	–	–	–	–
101 kPa, x2 = 0.74	1.441	–	–	–	–
101 kPa, x2 = 0.83	1.73	–	–	–	–
101 kPa, x2 = 0.92	2.12	–	–	–	–
101.33 kPa, x1 = 0.0859	–	1.86	1.656	1.489	–
101.33 kPa, x1 = 0.2006	–	1.452	1.311	1.193	–
101.33 kPa, x1 = 0.2972	–	1.175	1.065	0.979	–
101.33 kPa, x1 = 0.3877	–	0.999	0.911	0.84	–
101.33 kPa, x1 = 0.5025	–	0.833	0.77	0.713	–
101.33 kPa, x1 = 0.6013	–	0.726	0.675	0.629	–
101.33 kPa, x1 = 0.7617	–	0.59	0.557	0.524	–
101.33 kPa, x1 = 0.8121	–	0.571	0.534	0.507	–
101.33 kPa, x1 = 0.947	–	0.526	0.498	0.478	–
